Where a name gives a salt, the structure may show the parent alone.
experiment: Metabolic stability assay in human liver microsomes (HLM; Protocols 1 and 2); format: in vitro ADME; conditions: Protocol 1; human liver microsomes, 1 μM, NADPH, 37° C.
Method: Example B4: Metabolic Stability Assays
Studies were carried out in human and rat liver microsomes (“HLM” and “RLM,” respectively). Human and rat liver microsomes were purchased from BD Gentest. DMSO stocks were prepared for the test compounds. Aliquots of the DMSO solutions were diluted to 0.5 mM by acetonitrile, then further diluted by liver microsomes/buffer to 1.5 μM. 30 μL of 1.5 μM solutions were mixed with 15 μL of 6 mM NADPH, which had been pre-warmed to 37° C., at a final test compound concentration of 1 μM. The plates were kept in a 37° C. water bath for the duration of the experiment. At each time point (0, 5, 15, 30, 45 minutes), 135 μL of acetonitrile was added into corresponding wells. After the final time point was sampled, the plates were shaken at a vibrator (IKA, MTS 2/4) for 10 min (600 rpm/min) and then centrifuged at 5594 g for 15 min (Thermo Multifuge×3R). Aliquots of the supernatant were removed, diluted 1:1 into distilled water, and analyzed by LC-MS/MS. The peak area response ratio to internal standard (PARR) of the compounds at 5, 15, 30, 45 minutes was compared to the PARR at time 0 to determine the percent of test compound remaining at each time point. Half-lives were calculated using Excel software, fitting to a single-phase exponential decay equation.
Studies were carried out in human and rat liver microsomes. Buffer solutions were prepared as follows: Buffer A: 1.0 L of 0.1 M monobasic Potassium Phosphate buffer containing 1.0 mM EDTA; Buffer B: 1.0 L of 0.1 M Dibasic Potassium Phosphate buffer containing 1.0 mM EDTA; Buffer C: 0.1 M Potassium Phosphate buffer, 1.0 mM EDTA, pH 7.4 by titrating 700 mL of buffer B with buffer A while monitoring with a pH meter.
Reference compound (Ketanserin) and test compound spiking solutions were prepared as follows: 500 μM spiking solution: add 10 μL of 10 mM DMSO stock solution into 190 μL ACN; 1.5 μM spiking solution in microsomes (0.75 mg/mL): add 1.5 μL of 500 μM spiking solution and 18.75 μL of 20 mg/mL liver microsomes into 479.75 μL of Buffer C.
NADPH stock solution (6 mM) was prepared by dissolving NADPH into buffer C.
Assay procedure: 30 μL of 1.5 μM spiking solution containing 0.75 mg/mL microsomes solution was dispensed to the wells designated for 45 min, 30 min, 15 min, 5 min, and 0 min. The plate was pre-incubated at 37° C. for 10 minutes. 15 μL of NADPH stock solution (6 mM) was added to the wells designated as Time 45, and the timer was started. At 30 min, 15 min, and 5 min, 15 μL NADPH stock solution (6 mM) was added to the wells, respectively. At the end of incubation (0 min), 135 tit of ACN containing IS was added to all the wells. Then 15 tit of NADPH stock solution (6 mM) was added to the wells designated as Time 0. After quenching, the reaction mixtures were centrifuged at 3220 g for 10 min. Following centrifugation, 50 μL of the supernatant was transferred from each well into a 96-well sample plate containing 50 μL of ultra-pure water (Millipore) for LC/MS analysis. The peak area response (PARR) ratio to internal standard of the compounds at 5, 15, 30, and 45 minutes was compared to the PARR at time 0 to determine the percent of test compound remaining at each time point. Half-lives were calculated using Excel software, fitting to a single-phase exponential decay equation.

Question: With `COc1cc2c(C(=O)OCC34CCN(CC3)CC4)c[nH]c2cc1F` [Compound 57, quinuclidin-4-ylmethyl 6-fluoro-5-methoxy-1H-indole-3-carboxylate] as the molecule, how does the HLM read?
Answer: The HLM was 0 mL/min/kg.

same assay, conditions: human, microsomes, 1 μM

Question: For `Cc1cc(F)cc2[nH]cc(C(=O)OCC34CCN(CC3)CC4)c12` [Compound 44, quinuclidin-4-ylmethyl 6-fluoro-4-methyl-1H-indole-3-carboxylate], which HLM is on record?
Answer: The HLM was 3.5 mL/min/kg.

experiment: Human plasma stability (Protocols 1 and 2); format: in vitro ADME; conditions: human, plasma, pH 7.4
Method: Example B6: Human Plasma Stability
Studies were carried out in human plasma. All plasma was obtained from Bioreclamation and collected on sodium heparin. Plasma was adjusted to pH 7.4. A DMSO stock was first prepared for the test compound. An aliquot of the DMSO solution was dosed into 1 mL of plasma, which had been pre-warmed to 37° C., at a final test compound concentration of 1 μM. The vials were kept in a benchtop Thermomixer® for the duration of the experiment. Aliquots (100 μL) were taken at each time point (0, 15, 30, 60, and 120 minutes) and added to 96-well plates which had been pre-filled with 300 μL of acetonitrile. Samples were stored at 4° C. until the end of the experiment. After the final time point was sampled, the plate was mixed and then centrifuged at 3,000 rpm for 10 minutes. Aliquots of the supernatant were removed, diluted 1:1 into distilled water, and analyzed by LC-MS/MS. The peak area response ratio to internal standard (PARR) of the compound at 15, 30, 60 and 120 minutes was compared to the PARR at time 0 to determine the percent of test compound remaining at each time point. Half-lives were calculated using GraphPad software, fitting to a single-phase exponential decay equation.
Studies were carried out in plasma. Plasma was prepared under approval of IRB and IACUC on sodium heparin. The pH of plasma was monitored and used within the range of pH 7.4 to pH 8.0. DMSO stocks were prepared for the test compounds. Aliquots of the DMSO solutions were diluted to 0.05 mM by 0.05 mM Sodium phosphate buffer with 0.5% BSA. Then 10 μL of 0.05 mM solutions were dosed into 90 μL of plasma in duplicates (n=2), which had been pre-warmed to 37° C., at a final test compound concentration of 5 μM. The plates were kept in a 37° C. water bath for the duration of the experiment. At each time point (0, 5, 15, 30, 45, 60, and 120 minutes), 400 μL of acetonitrile was added into corresponding wells. After the final time point was sampled, the plates were shaken at the vibrator (IKA, MTS 2/4) for 10 min (600 rpm/min) and then centrifuged at 5594 g for 15 min (Thermo Multifuge×3R). Aliquots of the supernatant were removed, diluted 1:1 into distilled water, and analyzed by LC-MS/MS. The peak area response ratio to internal standard (PARR) of the compounds at 5, 15, 30, 45, 60, and 120 minutes was compared to the PARR at time 0 to determine the percent of test compound remaining at each time point. Half-lives were calculated using Excel software, fitting to a single-phase exponential decay equation.

Question: With `Cc1cc(F)cc2[nH]cc(C(=O)OCC34CCN(CC3)CC4)c12` [Compound 44, quinuclidin-4-ylmethyl 6-fluoro-4-methyl-1H-indole-3-carboxylate] as the molecule, how does the T1/2 read?
Answer: The T1/2 was “∞”.

Question: Which half-life at 5 μM does the source give for `O=C(OCC12CCN(CC1)CC2)c1c[nH]c2ccc(F)c(Br)c12` [Compound 67, quinuclidin-4-ylmethyl 4-bromo-5-fluoro-1H-indole-3-carboxylate] here?
Answer: The half-life at 5 μM was 96.9 h.

Question: For `Cc1ccc2[nH]cc(C(=O)OCC34CCN(CC3)CC4)c2c1Br` [Compound 68, quinuclidin-4-ylmethyl 4-bromo-5-methyl-1H-indole-3-carboxylate], which T1/2 is on record?
Answer: The T1/2 was “∞”.

Question: With `COc1c(C)ccc2[nH]cc(C(=O)OCC34CCN(CC3)CC4)c12` [Compound 75, quinuclidin-4-ylmethyl 4-methoxy-5-methyl-1H-indole-3-carboxylate] as the molecule, how does the T1/2 read?
Answer: The T1/2 was “∞”.

Question: Which half-life at 5 μM does the source give for `COc1cc2c(C(=O)OCC34CCN(CC3)CC4)c[nH]c2cc1C#N` [Compound 76, quinuclidin-4-ylmethyl 6-cyano-5-methoxy-1H-indole-3-carboxylate] here?
Answer: Its half-life at 5 μM is 4.88 h.

Question: With `COc1cc(C#N)cc2[nH]cc(C(=O)OCC34CCN(CC3)CC4)c12` [Compound 77, quinuclidin-4-ylmethyl 6-cyano-4-methoxy-1H-indole-3-carboxylate] as the molecule, how does the half-life at 5 μM read?
Answer: Its half-life at 5 μM is 3.87 h.

Question: With `O=C(OCC12CCN(CC1)CC2)c1c[nH]c2ccc3c(c12)OCCO3` [Compound 81, quinuclidin-4-ylmethyl 2,3-dihydro-7H-[1,4]dioxino[2,3-e]indole-9-carboxylate] as the molecule, how does the half-life at 5 μM read?
Answer: The half-life at 5 μM was 4.5 h.

Question: For `COc1cc(C)cc2[nH]cc(C(=O)OCC34CCN(CC3)CC4)c12` [Compound 85, quinuclidin-4-ylmethyl 4 methoxy-6-methyl-1H-indole-3-carboxylate], which half-life at 5 μM is on record?
Answer: The half-life at 5 μM was 1.16 h.

Question: For `COc1cc2c(C(=O)OCC34CCN(CC3)CC4)c[nH]c2cc1O` [Compound 86, quinuclidin-4-ylmethyl 6-hydroxy-5-methoxy-1H-indole-3-carboxylate], which half-life at 5 μM is on record?
Answer: The half-life at 5 μM was 0.954 h.

Question: Which T1/2 does the source give for `COc1c(OCC(F)(F)F)ccc2[nH]cc(C(=O)OCC34CCN(CC3)CC4)c12` [Compound 88, quinuclidin-4-ylmethyl 4-methoxy-5-(2,2,2-trifluoroethoxy)-1H-indole-3-carboxylate] here?
Answer: Its T1/2 is “∞”.

Question: With `Cc1cc(OC(=O)C(C)(C)C)cc2[nH]cc(C(=O)OCC34CCN(CC3)CC4)c12` [Compound 89, quinuclidin-4-ylmethyl 4-methyl-6-(pivaloyloxy)-1H-indole-3-carboxylate] as the molecule, how does the half-life at 5 μM read?
Answer: The half-life at 5 μM was 5.16 h.

Question: With `COCCOc1ccc2[nH]cc(C(=O)OCC34CCN(CC3)CC4)c2c1C` [Compound 91, quinuclidin-4-ylmethyl 5-(2-methoxyethoxy)-4-methyl-1H-indole-3-carboxylate] as the molecule, how does the half-life at 5 μM read?
Answer: Its half-life at 5 μM is 8.32 h.

Question: With `COCCCOc1ccc2[nH]cc(C(=O)OCC34CCN(CC3)CC4)c2c1C` [Compound 92, quinuclidin-4-ylmethyl 5-(3-methoxypropoxy)-4-methyl-1H-indole-3-carboxylate] as the molecule, how does the half-life at 5 μM read?
Answer: Its half-life at 5 μM is 3.13 h.

Question: Which half-life at 5 μM does the source give for `CC(=O)Nc1cc(C)c2c(C(=O)OCC34CCN(CC3)CC4)c[nH]c2c1` [Compound 93, quinuclidin-4-ylmethyl 6-acetamido-4-methyl-1H-indole-3-carboxylate] here?
Answer: The half-life at 5 μM was 10.7 h.

Question: Which half-life at 5 μM does the source give for `Cc1c(OCC(F)(F)F)ccc2[nH]cc(C(=O)OCC34CCN(CC3)CC4)c12` [Compound 94, quinuclidin-4-ylmethyl 4-methyl-5-(2,2,2-trifluoroethoxy)-1H-indole-3-carboxylate] here?
Answer: Its half-life at 5 μM is 5.74 h.

Question: With `Cc1c(OCCO)ccc2[nH]cc(C(=O)OCC34CCN(CC3)CC4)c12` [Compound 95, quinuclidin-4-ylmethyl 5-(2-hydroxyethoxy)-4-methyl-1H-indole-3-carboxylate, 2,2,2-trifluoroacetate salt] as the molecule, how does the half-life at 5 μM read?
Answer: The half-life at 5 μM was 6.61 h.

Question: With `CNCCCOc1ccc2[nH]cc(C(=O)OCC34CCN(CC3)CC4)c2c1C` [Compound 96, quinuclidin-4-ylmethyl 4-methyl-5-(3-(methylamino)propoxy)-1H-indole-3-carboxylate dihydrochloride] as the molecule, how does the half-life at 5 μM read?
Answer: The half-life at 5 μM was 0.114 h.

same assay, conditions: human; Protocol 2; plasma pH 7.4 to 8.0, 5 μM, 37° C.; read-out: T1/2

Question: Which half-life at 5 μM does the source give for `COc1cc2c(C(=O)OCC34CCN(CC3)CC4)c[nH]c2cc1F` [Compound 57, quinuclidin-4-ylmethyl 6-fluoro-5-methoxy-1H-indole-3-carboxylate] here?
Answer: The half-life at 5 μM was 5.47 h.

Question: With `Cc1cc(Cl)c2c(C(=O)OCC34CCN(CC3)CC4)c[nH]c2c1.Cl` [Compound 65, quinuclidin-4-ylmethyl 4-chloro-6-methyl-1H-indole-3-carboxylate hydrochloride] as the molecule, how does the half-life at 5 μM read?
Answer: Its half-life at 5 μM is 5.56 h.

Question: With `Cl.O=C(OCC12CCN(CC1)CC2)c1c[nH]c2cc(Cl)cc(Cl)c12` [Compound 71, quinuclidin-4-ylmethyl 4,6-dichloro-1H-indole-3-carboxylate hydrochloride] as the molecule, how does the half-life at 5 μM read?
Answer: Its half-life at 5 μM is 4.71 h.

Question: Which half-life at 5 μM does the source give for `Cc1cc2[nH]cc(C(=O)OCC34CCN(CC3)CC4)c2cc1F` [Compound 72, Quinuclidin-4-ylmethyl 5-fluoro-6-methyl-1H-indole-3-carboxylate hydrochloride] here?
Answer: The half-life at 5 μM was 3.8 h.

Question: With `Cc1cc2[nH]cc(C(=O)OCC34CCN(CC3)CC4)c2cc1C.Cl` [Compound 73, Quinuclidin-4-ylmethyl 5,6-dimethyl-1H-indole-3-carboxylate hydrochloride] as the molecule, how does the half-life at 5 μM read?
Answer: Its half-life at 5 μM is 1.57 h.

Question: Which half-life at 5 μM does the source give for `COc1cc(Cl)cc2[nH]cc(C(=O)OCC34CCN(CC3)CC4)c12.Cl` [Compound 74, quinuclidin-4-ylmethyl 6-chloro-4-methoxy-1H-indole-3-carboxylate hydrochloride] here?
Answer: Its half-life at 5 μM is 2.94 h.

Question: Which half-life at 5 μM does the source give for `Cc1cc2c(C(=O)OCC34CCN(CC3)CC4)c[nH]c2cc1C#N` [Compound 84, quinuclidin-4-ylmethyl 6-cyano-5-methyl-1H-indole-3-carboxylate] here?
Answer: The half-life at 5 μM was 3.49 h.

Question: For `Cl.O=C(OCC12CCN(CC1)CC2)c1c[nH]c2cc(C(F)(F)F)ccc12` [Compound 90, quinuclidin-4-ylmethyl 6-(trifluoromethyl)-1H-indole-3-carboxylate], which half-life at 5 μM is on record?
Answer: The half-life at 5 μM was 3.05 h.
